Legend:
α-thrombin = α-thrombin (Homo sapiens, UniProt P00734); experiment: antithrombin activity: inhibition of α-thrombin digesting Chromozym TH; type: biochemical
Experimental: The amino acid composition is determined by the dimethylaminoazobenzene sulfonyl (dabsyl) chloride method (Chang et al. Anal. Biochem. (1991), 197, 52-58.), which allows direct quantization of the disulfide content. The amino acid sequence was analyzed by an Applied Biosystem Inc. 470A protein sequencer. The antithrombin activity of desulphatohirudin derivatives was assessed by their ability to inhibit α-thrombin from digesting Chromozym TH (Boehringer Mannheim), using the described protocol (Stone et al. Biochemistry (1986), 25, 4622-4628; Chatrenet et al. J. Biol. Chem. (1992), 267, 3038-3043). The molecular weight of desulphatohirudin is […], determined by the laser desorption ionization mass spectrometry using a home-built instrument (Boernsen et al. Chimia (1990), 44, 412-416).

plasma APTT = experiment: ex vivo plasma APTT after subcutaneous administration in the rat; conditions: s.c. 1 ml/kg, dimer 4.5 mg/ml, HV1 3.0 mg/ml, mean±SEM, n=5
Experimental: (APTT=activated partial thrombin time)
[Cys^33 ]HV1--[Cys^33 ]HV1 dimer is dissolved in saline to a concentration of 4.5 mg/ml and unmodified hirudin-monomer is dissolved in saline to a concentration of 3.0 mg/ml (these doses are chosen based on the in vitro results in order to achieve a similar effect on APTT at 1 h). Solutions are administered subcutaneously to rats (1 ml/kg). At various times after administration, blood (2 ml) is collected by cardiac puncture directly into one tenth volume trisodium titrate solution (3.8% w/v) and immediately mixed. The anticoagulated blood is centrifuged at 2500 g for 20 min to obtain platelet free plasma.
Plasma samples are assayed for APTT using standard methods on the Instrumentation Laboratory ACL 300R coagulometer. The method for APTT determination utilizes the Instrumentation Laboratory ellagic acid test kit--plasma (50 μl) is incubated with ellagic acid activating reagent (50 μl) at 37° C. for 5 min prior to the addition of calcium chloride solution (50 μl of 25 mM solution) and the time taken for the plasma clot is recorded automatically, the end point being determined optically by the light scattered when the fibrin network formed (see table 1).
The results are expressed as a multiple of the means control APTT value and presented as mean±standard error of the mean (n=5).

human thrombin = human thrombin (Homo sapiens, UniProt P00734); experiment: kinetic parameters for inhibition of human thrombin (progress-curve experiments, D-Phe-pipecolyl-Arg-p-nitroanilide); type: biochemical; conditions: substrate 100 μM, enzyme 20 pM; weighted means of two determinations
Experimental: The kinetic parameters of the [Cys^33 ]HV1--[Cys^33 ]HV1 dimer are determined from progress-curve experiments as described by Stone et al. Biochemistry (1986), 25, 4622-4628 and Braun et al. Biochemistry, (1988), 27, 6517-6522. For each determination, the formation of p-nitroaniline from D-Phe-pipecolyl-Arg-p-nitroanilide is monitored in six assays, one in absence of inhibitor and the others with different concentrations of inhibitor ranging from 10 to 60 pM for the [Cys^33 ]HV1--[Cys^33 ]HV1 dimer. The substrat concentration is 100 μM and the enzyme concentration is 20 pM.
The kinetic parameters are determined twice and values given in table 2 represent the weightened means of the estimates.

Substance	potency of thrombin inhibition, monomer versus dimer (α-thrombin; comparison of Cys33 monomer and dimer)	thrombin inhibition (inhibitory activity, equal weight basis) (α-thrombin; 1 nM desulphatohirudin, 1.5 nM α-thrombin)	APTT as multiple of the mean control APTT value (plasma APTT; 0 hours)	APTT as multiple of the mean control APTT value (plasma APTT; 1 hour)	APTT as multiple of the mean control APTT value (plasma APTT; 4 hours)	APTT as multiple of the mean control APTT value (plasma APTT; 6 hours)	10^8 k1 (human thrombin)
Cys^33 monomer: mutant of recombinant desulphatohirudin HV1 with cysteine replacing aspartic acid at position 33 (SEQ ID NO: 8)	nearly indistinguishable (±3%)	–	–	–	–	–	–
HV1: unmodified desulphatohirudin variant 1 monomer, used as comparator	–	82±5%	1.00 ± 0.02 multiple of control APTT	2.44 ± 0.07 multiple of control APTT	1.43 ± 0.05 multiple of control APTT	0.95 ± 0.02 multiple of control APTT	1.37 ± 0.03 M^-1 s^-1
